Reference: US9028845B2, “Chimeric immunomodulatory compounds and methods of using the same-IV” (Dynavax Technologies Corporation, priority 2001, dated 2015)

Test system: human PBMCs
Test: Human PBMC cytokine response assay (IFN-γ and IFN-α in cell-free medium by ELISA), with or without cPLGA
Type: cell-based
[1] = Donor 5, 20 μg/ml (mixtures: 20 μg/ml total), 24 h
[2] = Donor 6, 20 μg/ml (mixtures: 20 μg/ml total), 24 h

With “5′-TGACTGTGAACGTTCGAGATGA-3′ (SEQ ID NO: 2) [Compound P-6, reference compound]” the “IFN-α (pg/ml) Donor 1” value (Donor 1, 20 μg/ml, 24 h) was 401 pg/mL, the “IFN-γ (pg/ml) Donor 1” value (Donor 1, 20 μg/ml, 24 h) was 2180 pg/mL and the “IFN-α (pg/ml) Donor 2” value (Donor 2, 20 μg/ml, 24 h) was 39 pg/mL. For the same substance, the “IFN-γ (pg/ml) Donor 2” value (Donor 2, 20 μg/ml, 24 h) was 669 pg/mL, the “IFN-α (pg/ml) Donor 3” value (Donor 3, 20 μg/ml, 24 h) was 28 pg/mL and the “IFN-γ (pg/ml) Donor 3” value (Donor 3, 20 μg/ml, 24 h) was 99 pg/mL. For the same substance, the “IFN-α (pg/ml) Donor 4” value (Donor 4, 20 μg/ml, 24 h) was 106 pg/mL, the “IFN-γ (pg/ml) Donor 4” value (Donor 4, 20 μg/ml, 24 h) was 223 pg/mL and the “IFN-α (pg/ml) Donor 5” value [1] was 54 pg/mL. The “IFN-γ (pg/ml) Donor 5” value [1] was 73 pg/mL, the “IFN-α (pg/ml) Donor 6” value [2] was 482 pg/mL and the “IFN-γ (pg/ml) Donor 6” value [2] was 1170 pg/mL. For the same substance, the “IFN-α (pg/ml) Donor 7” value (Donor 7, 20 μg/ml, 24 h) was 4 pg/mL, the “IFN-γ (pg/ml) Donor 7” value (Donor 7, 20 μg/ml, 24 h) was 15 pg/mL and the “IFN-α (pg/ml) Donor 8” value (Donor 8, 20 μg/ml, 24 h) was 59 pg/mL. The “IFN-γ (pg/ml) Donor 8” value (Donor 8, 20 μg/ml, 24 h) was 367 pg/mL, the “IFN-α Donor 9” value (Donor 9, 20 μg/ml, 24 h) was 12 and the “IFN-γ Donor 9” value (Donor 9, 20 μg/ml, 24 h) was 66. For the same substance, the “IFN-α Donor 10” value (Donor 10, 20 μg/ml, 24 h) was 28, the “IFN-γ Donor 10” value (Donor 10, 20 μg/ml, 24 h) was 20 and the “IFN-α Donor 11” value (Donor 11, 20 μg/ml, 24 h) was 12. For the same substance, the “IFN-γ Donor 11” value (Donor 11, 20 μg/ml, 24 h) was 72, the “IFN-α Donor 12” value (Donor 12, 20 μg/ml, 24 h) was 12 and the “IFN-γ Donor 12” value (Donor 12, 20 μg/ml, 24 h) was 23. The IFN-α (Example 58, 0.8 ug/ml, donor 1) was 52 pg/mL, the IFN-α (Example 58, 0.8 ug/ml, donor 2) was 52 pg/mL and the IFN-α (Example 58, 0.8 ug/ml, donor 3) was 52 pg/mL. The IFN-α (Example 58, 0.8 ug/ml, donor 4) was 52 pg/mL, the IFN-α mean (Example 58, 0.8 ug/ml, mean of four individuals) was 52 pg/mL and the IFN-α (Example 58, 4 ug/ml, donor 1) was 115 pg/mL. It also gave an IFN-α (Example 58, 4 ug/ml, donor 2) of 52 pg/mL, an IFN-α (Example 58, 4 ug/ml, donor 3) of 52 pg/mL and an IFN-α (Example 58, 4 ug/ml, donor 4) of 65 pg/mL. For the same substance, the IFN-α mean (Example 58, 4 ug/ml, mean of four individuals) was 71 pg/mL, the IFN-α (Example 58, 20 ug/ml, donor 1) was 116 pg/mL and the IFN-α (Example 58, 20 ug/ml, donor 2) was 64 pg/mL. The IFN-α (Example 58, 20 ug/ml, donor 3) was 52 pg/mL, the IFN-α (Example 58, 20 ug/ml, donor 4) was 52 pg/mL and the IFN-α mean (Example 58, 20 ug/ml, mean of four individuals) was 71 pg/mL. It also gave an IFN-α (Example 59, 0.8 ug/ml, donor 48) of 102 pg/mL, an IFN-α (Example 59, 0.8 ug/ml, donor 177) of 102 pg/mL and an IFN-α (Example 59, 0.8 ug/ml, donor 272) of 102 pg/mL. It also gave an IFN-α (Example 59, 0.8 ug/ml, donor 273) of 102 pg/mL, an IFN-α mean (Example 59, 0.8 ug/ml, mean of four donors) of 102 pg/mL and an IFN-α (Example 59, 4 ug/ml, donor 48) of 102 pg/mL. It also gave an IFN-α (Example 59, 4 ug/ml, donor 177) of 245 pg/mL, an IFN-α (Example 59, 4 ug/ml, donor 272) of 102 pg/mL and an IFN-α (Example 59, 4 ug/ml, donor 273) of 102 pg/mL. It also gave an IFN-α mean (Example 59, 4 ug/ml, mean of four donors) of 138 pg/mL, an IFN-α (Example 59, 20 ug/ml, donor 48) of 256 pg/mL and an IFN-α (Example 59, 20 ug/ml, donor 177) of 323 pg/mL. For the same substance, the IFN-α (Example 59, 20 ug/ml, donor 272) was 102 pg/mL, the IFN-α (Example 59, 20 ug/ml, donor 273) was 102 pg/mL and the IFN-α mean (Example 59, 20 ug/ml, mean of four donors) was 196 pg/mL. The IFN-α (Table 9, donor 28089) was 0 pg/mL, the IFN-γ (Table 9, donor 28089) was 84 pg/mL and the IFN-α (Table 9, donor 28090) was 62 pg/mL. It also gave an IFN-γ (Table 9, donor 28090) of 255 pg/mL, an IFN-α (Table 9, donor 28098) of 105 pg/mL and an IFN-γ (Table 9, donor 28098) of 745 pg/mL. For the same substance, the IFN-α (Table 9, donor 28099) was 105 pg/mL, the IFN-γ (Table 9, donor 28099) was 125 pg/mL and the IFN-α mean (Table 9, mean of donors) was 68 pg/mL. For the same substance, the IFN-γ mean (Table 9, mean of donors) was 302 pg/mL, the IFN-α (Table 10, donor 28042) was 27 pg/mL and the IFN-γ (Table 10, donor 28042) was 495 pg/mL. It also gave an IFN-α (Table 10, donor 28043) of 85 pg/mL, an IFN-γ (Table 10, donor 28043) of 1189 pg/mL and an IFN-α (Table 10, donor 28044) of 36 pg/mL. For the same substance, the IFN-γ (Table 10, donor 28044) was 925 pg/mL, the IFN-α (Table 10, donor 28045) was 21 pg/mL and the IFN-γ (Table 10, donor 28045) was 212 pg/mL. The IFN-α mean (Table 10, mean of donors) was 42 pg/mL, the IFN-γ mean (Table 10, mean of donors) was 705 pg/mL and the IFN-α (Table 11, donor 28042) was 9 pg/mL. It also gave an IFN-γ (Table 11, donor 28042) of 324 pg/mL, an IFN-α (Table 11, donor 28043) of 34 pg/mL and an IFN-γ (Table 11, donor 28043) of 1036 pg/mL. For the same substance, the IFN-α (Table 11, donor 28044) was 22 pg/mL, the IFN-γ (Table 11, donor 28044) was 529 pg/mL and the IFN-γ (Table 11, donor 28045) was 653 pg/mL. The IFN-α mean (Table 11, mean of donors) was 43 pg/mL, the IFN-γ mean (Table 11, mean of donors) was 636 pg/mL and the IFN-α (Table 13, donor 28156) was 52 pg/mL. For the same substance, the IFN-γ (Table 13, donor 28156) was 1132 pg/mL, the IFN-α (Table 13, donor 28157) was 484 pg/mL and the IFN-γ (Table 13, donor 28157) was 872 pg/mL.
